Experimental data reported in patent US7772241B2, “Variolin derivatives and their use as antitumor agents” (Pharma Mar S.A., priority 2001, dated 2010).
Where two headings read alike, the source gives them in different places.

Legend:
IGROV-1 = experiment: Inhibition of cells growth by colorimetric (SRB) assay, IGROV-1; details: for GI50 / CC50: Homo sapiens, IGROV-1, 48 h; for GI50: read-out: GI50 IGROV, SRB assay, 48 hours exposure; for TGI IGROV: SRB assay, 48 hours exposure
Procedure, shortened: (§1)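 Read-out is sulforhodamine B protein stain (OD 490 nm) after cold TCA fixation, following 48 h continuous exposure to samples spanning 10 to 10^−8 μg/ml.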

PANC-1 = experiment: Inhibition of cells growth by colorimetric (SRB) assay, PANC-1; details: Homo sapiens, PANC-1, 48 h, read-out: GI50 PANC-1, SRB assay, 48 hours exposure
Procedure, shortened: as §1

SK-BR-3 = experiment: Inhibition of cells growth by colorimetric (SRB) assay, SK-BR-3; details: for GI50 / CC50: Homo sapiens, SK-BR-3, 48 h; for GI50: read-out: GI50 SK-BR-3, SRB assay, 48 hours exposure; for TGI SK-BR-3: SRB assay, 48 hours exposure
Procedure, shortened: as §1

A-549 = experiment: Inhibition of cells growth by colorimetric (SRB) assay, A-549; details: for GI50 / CC50: Homo sapiens, A549, 48 h; for GI50: read-out: GI50 A-549, SRB assay, 48 hours exposure; for TGI A-549: SRB assay, 48 hours exposure
Procedure, shortened: as §1

SK-MEL-28 = experiment: Inhibition of cells growth by colorimetric (SRB) assay, SK-MEL-28; details: for GI50 / CC50: Homo sapiens, SK-MEL-28, 48 h; for GI50: read-out: GI50 MEL-28, SRB assay, 48 hours exposure; for TGI MEL-28: SRB assay, 48 hours exposure
Procedure, shortened: as §1

[1] = Inhibition of cells growth by colorimetric (SRB) assay, HMEC1
HMEC1 = experiment: as above; details: for GI50: Homo sapiens, HMEC-1, 48 h, read-out: GI50 H-MEC-1, SRB assay, 48 hours exposure; for TGI H-MEC-1: SRB assay, 48 hours exposure
K-562 = experiment: Inhibition of cells growth by colorimetric (SRB) assay, K-562; details: for GI50 / CC50: Homo sapiens, K562, 48 h; for GI50: read-out: GI50 K-562, SRB assay, 48 hours exposure; for TGI K-562: SRB assay, 48 hours exposure
Procedure, shortened: as §1

LNCaP = experiment: Inhibition of cells growth by colorimetric (SRB) assay, LNCaP; details: for GI50 / CC50: Homo sapiens, LNCaP, 48 h; for GI50: read-out: GI50 LN-caP, SRB assay, 48 hours exposure; for TGI LN-caP: SRB assay, 48 hours exposure
Procedure, shortened: as §1

DU-145 = experiment: Inhibition of cells growth by colorimetric (SRB) assay, DU-145; details: for GI50 / CC50: Homo sapiens, DU-145, 48 h; for GI50: read-out: GI50 DU-145, SRB assay, 48 hours exposure; for TGI DU-145: SRB assay, 48 hours exposure
Procedure, shortened: as §1

IGROV-ET = experiment: Inhibition of cells growth by colorimetric (SRB) assay, IGROV-ET; details: for GI50 / CC50: Homo sapiens, 48 h; for GI50: read-out: GI50 IGROV-ET, SRB assay, 48 hours exposure; for TGI IGROV-ET: SRB assay, 48 hours exposure
Procedure, shortened: as §1

SK-OV-3 = experiment: Inhibition of cells growth by colorimetric (SRB) assay, SK-OV-3; details: for GI50 / CC50: Homo sapiens, SK-OV-3, 48 h; for GI50: read-out: GI50 SKOV-3, SRB assay, 48 hours exposure; for TGI SKOV-3: SRB assay, 48 hours exposure
Procedure, shortened: as §1

[2] = read-out: LC50 IGROV, SRB assay, 48 hours exposure
[3] = read-out: LC50 SK-BR-3, SRB assay, 48 hours exposure
[4] = read-out: LC50 A-549, SRB assay, 48 hours exposure
[5] = read-out: LC50 MEL-28, SRB assay, 48 hours exposure
[6] = human, HMEC1 cells, LC50 H-MEC-1, SRB assay, 48 hours exposure
[7] = read-out: LC50 K-562, SRB assay, 48 hours exposure
[8] = read-out: LC50 LN-caP, SRB assay, 48 hours exposure
[9] = read-out: LC50 DU-145, SRB assay, 48 hours exposure
[10] = read-out: LC50 IGROV-ET, SRB assay, 48 hours exposure
[11] = read-out: LC50 SKOV-3, SRB assay, 48 hours exposure

| Compound | GI50 (IGROV-1) [nM] | TGI IGROV (IGROV-1) | GI50 (PANC-1) [µM] | GI50 (SK-BR-3) [nM] | TGI SK-BR-3 (SK-BR-3) | GI50 (A-549) [nM] | TGI A-549 (A-549) | GI50 (SK-MEL-28) [nM] | TGI MEL-28 (SK-MEL-28) | GI50 (HMEC1) [µM] | GI50 (K-562) [nM] | TGI K-562 (K-562) | GI50 (LNCaP) [nM] | TGI LN-caP (LNCaP) | GI50 (DU-145) [nM] | TGI DU-145 (DU-145) | GI50 (IGROV-ET) [µM] | TGI IGROV-ET (IGROV-ET) | GI50 (SK-OV-3) [nM] | TGI SKOV-3 (SK-OV-3) | also measured |
| --- | --- | --- | --- | --- | --- | --- | --- | --- | --- | --- | --- | --- | --- | --- | --- | --- | --- | --- | --- | --- | --- |
| COc1ccc(CNc2ccnc3c2c(-c2ccnc([S+](C)[O-])n2)c2ccnc(NCc4ccc(OC)cc4)n23)cc1 (stereo not shown) [Compound 86] | ≥ 17300 | 1.73E−05 | ≥ 17.3 | ≥ 17300 | 1.73E−05 | ≥ 17300 | 1.73E−05 | ≥ 17300 | 1.73E−05 | 7.99 | ≥ 17300 | 1.73E−05 | ≥ 17300 | 1.73E−05 | ≥ 17300 | 1.73E−05 | ≥ 17.3 | 1.73E−05 | ≥ 17300 | 1.73E−05 | CC50 (IGROV-1; [2]): ≥ 17.3 µM; CC50 (SK-BR-3; [3]): ≥ 17.3 µM; CC50 (A-549; [4]): ≥ 17.3 µM; CC50 (SK-MEL-28; [5]): ≥ 17.3 µM; CC50 at 48 h [1, 6]: ≥ 17.3 µM; TGI H-MEC-1 (HMEC1; in M (unit assumed)): 1.73E−05; CC50 (K-562; [7]): ≥ 17.3 µM; CC50 (LNCaP; [8]): ≥ 17300 nM; CC50 (DU-145; [9]): ≥ 17.3 µM; CC50 (IGROV-ET; [10]): ≥ 17.3 µM; CC50 (SK-OV-3; [11]): ≥ 17.3 µM |
| COc1ccc(CNc2ccnc3c2c(-c2ccnc(OC)n2)c2ccnc(NCc4ccc(OC)cc4)n23)cc1 [Compound 87] | 17300 | 1.73E−05 | 17.3 | 17300 | 1.73E−05 | 17300 | 1.73E−05 | 17300 | 1.73E−05 | 7.3 | 17300 | 1.73E−05 | 17300 | 1.73E−05 | 18300 | 1.73E−05 | 17.3 | 1.73E−05 | 17300 | 1.73E−05 | CC50 (IGROV-1; [2]): 17.3 µM; CC50 (SK-BR-3; [3]): 17.3 µM; CC50 (A-549; [4]): 17.3 µM; CC50 (SK-MEL-28; [5]): 17.3 µM; CC50 at 48 h [1, 6]: 17.3 µM; TGI H-MEC-1 (HMEC1; in M (unit assumed)): 1.73E−05; CC50 (K-562; [7]): 17.3 µM; CC50 (LNCaP; [8]): 17300 nM; CC50 (DU-145; [9]): 17.3 µM; CC50 (IGROV-ET; [10]): 17.3 µM; CC50 (SK-OV-3; [11]): 17.3 µM |
| COc1nccc(-c2c3c(Cl)ccnc3n3c(N)nccc23)n1 [Compound 112] | 1650 | 7.59E−06 | 6.34 | 2010 | 7.13E−06 | 1380 | 4.35E−06 | 321 | 5.29E−06 | 1.27 | 1400 | 8.66E−06 | 872 | 1.51E−06 | 716 | 1.72E−06 | 7.65 | 1.91E−05 | 989 | 2.30E−06 | CC50 (IGROV-1; [2]): 30.6 µM; CC50 (SK-BR-3; [3]): 27.8 µM; CC50 (A-549; [4]): 30.6 µM; CC50 (SK-MEL-28; [5]): 16.6 µM; CC50 at 48 h [1, 6]: 11.9 µM; TGI H-MEC-1 (HMEC1; in M (unit assumed)): 4.71E−06; CC50 (K-562; [7]): 30.6 µM; CC50 (LNCaP; [8]): 2620 nM; CC50 (DU-145; [9]): 3.06 µM; CC50 (IGROV-ET; [10]): 30.6 µM; CC50 (SK-OV-3; [11]): 30.6 µM |
| Nc1nccc(-c2c3c(O)ccnc3n3c(N)nccc23)n1 [Variolin B1, variolin B, reference compound] | 1140 | 2.90E−06 | 1.68 | 848 | 2.31E−06 | 985 | 2.21E−06 | 1200 | 2.13E−06 | 0.273 | 1550 | 3.92E−06 | 53.9 | 2.10E−06 | 893 | 2.10E−06 | 1.28 | 2.82E−06 | 1210 | 3.32E−06 | CC50 (IGROV-1; read-out: LC50 IGROV): 34.1 µM; CC50 (SK-BR-3; read-out: LC50 SK-BR-3): 27.7 µM; CC50 (A-549; read-out: LC50 A-549): 3.41 µM; CC50 (SK-MEL-28; read-out: LC50 MEL-28): 2.8 µM; CC50 at 48 h [1]: 6.07 µM; TGI H-MEC-1 (HMEC1): 7.50E−07; CC50 (K-562; read-out: LC50 K-562): 34.1 µM; CC50 (LNCaP; read-out: LC50 LN-caP): 1410 nM; CC50 (DU-145; read-out: LC50 DU-145): 19.9 µM; CC50 (IGROV-ET; read-out: LC50 IGROV-ET): 34.1 µM; CC50 (SK-OV-3; read-out: LC50 SKOV-3): 34.1 µM |
